Data published in patent publication US20020142016A1, “Stable skin care product containing a retinoid and a retinoid booster system in a dual compartment package” (priority 2000, published 2002).

Experiments:
TGase I = test: Transglutaminase (TGase I ELISA) assay in cultured keratinocytes with retinol; assay type: cell-based; details: for IC50: Keratinocyte, concentration of booster which, with constant retinol 10^-7 M, inhibits TGase by 50%, read-out: Overall TG (IC 50); for % Inhibition Overall TG (-ROH/RE): added effect of booster+retinol induced TGase inhibition over retinol alone
[1] = test system: retinoic acid oxidation (cytochrome P450 systems); test: Assay for NADPH dependent retinoic acid oxidation in rat liver microsomes; assay type: biochemical; details: Sprague Dawley, pH 7.4, probe retinoic acid; for inhibition at 60 min, 100 µM: 10 μM
[2] = Retinol stability in the presence of boosters (OD 360 nm); assay type: physicochemical; details: booster approximately 0.1%, retinol in approx. 50% aqueous ethanol, 60 hours at room temperature in the dark
Procedure: Retinol (50% in tween 80) was dissolved in approximately 50% aqueous ethanol to provide a solution giving an OD at 360nm of approximately 0.6 when measured in a 200 μl volume in a 96 well plate using a standard 96 well spectrophotometer.
Booster molecules were added at approximately 0.1% concentration and the OD 360 measured as above immediately and after 60 hours at room temperature in the dark. A correction was applied to the OD after 60 hours (divide by 0.85) to account for increased concentration of the retinol due to evaporation of solvent from the plate.

LRAT = biological target: T1, LRAT (Bos taurus, UniProt Q9BGL2); test: Assay for LRAT activity in RPE microsomes; assay type: biochemical, bovine; details: 100 μm compound
T1 construct: followed by approximately 15 pg of RPE microsomal protein; tissue W. L. Lawson Co., Lincoln, Nebr; host or cells: bovine retinal pigment epithelium microsomes
T1 sequence (Q9BGL2 1-230): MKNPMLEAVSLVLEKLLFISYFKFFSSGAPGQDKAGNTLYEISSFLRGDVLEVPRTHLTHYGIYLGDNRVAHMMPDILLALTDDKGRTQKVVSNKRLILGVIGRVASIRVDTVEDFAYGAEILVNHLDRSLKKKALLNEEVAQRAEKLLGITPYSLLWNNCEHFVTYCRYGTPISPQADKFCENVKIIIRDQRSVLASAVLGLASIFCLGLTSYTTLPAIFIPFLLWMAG

Row | Compound | IC50 (TGase I) [µM] | FOLD INCREASE IN RATE OF RETINOL LOSS [2] | also measured
1 | CC(C)(C)C(=O)C(Oc1ccc(Cl)cc1)n1ccnc1 (stereo not shown) [Climbazole] | 4.47 | – | inhibition at 60 min, 10 µM [1]: 80%; inhibition at 60 min, 100 µM [1]: 92%
2 | CC(C)=CCC/C(C)=C/CO [Geraniol] | 7830 | 1.3 | –
3 | CCCCC/C=C\C/C=C\CCCCCCCC(=O)NCCCN(C)C [Linoleamidopropyl Dimethylamine] | – | – | inhibition at 100 µM (LRAT): 75%
4 | CCN(CC)CC(=O)Nc1c(C)cccc1C [Lidocaine, reference compound] | – | – | inhibition at 100 µM (LRAT): 0%
5 | CC1(C)[C@@H](OC(=O)CCC(=O)O)CC[C@]2(C)[C@H]3C(=O)C=C4[C@@H]5C[C@@](C)(C(=O)O)CC[C@]5(C)CC[C@@]4(C)[C@]3(C)CC[C@@H]12 [Carbenoxolone, reference compound] | 0.361 | – | –
6 | DAMASCONE | – | 3.7 | –
7 | COc1cc(C=O)ccc1O [Vanillin] | 9700 | – | –
8 | O=c1c(O)c(-c2ccc(O)c(O)c2)oc2cc(O)cc(O)c12 [Quercetin] | 62.9 | – | inhibition at 60 min, 10 µM [1]: 40%; inhibition at 60 min, 100 µM [1]: 74%
9 | CCCCC/C=C\C/C=C\CCCCCCCC(=O)O [Linoleic Acid] | 163 | 3.4 | –
10 | CCCCCCCC/C=C/CCCCCCCC(=O)O [Elaidic Acid] | 65 | – | –
11 | CCCCC/C=C/C/C=C/CCCCCCCC(=O)NC(C)c1ccccc1 (stereo not shown) [Melinamide, reference compound] | – | – | inhibition at 100 µM (LRAT): 43%
12 | Clc1ccc(COC(Cn2ccnc2)c2ccc(Cl)cc2Cl)cc1 (stereo not shown) [Econazole] | – | – | inhibition at 60 min, 10 µM [1]: 88%; inhibition at 60 min, 100 µM [1]: 100%
13 | CC(=O)/C=C/C1C(C)=CCCC1(C)C (stereo not drawn) [Alpha-Ionone] | – | 1.3 | –
14 | CN1CCN(C)C1=O [Dimethyl Imidazolidinone] | – | 1.4 | % Inhibition Overall TG (-ROH/RE) (TGase I): 22%
15 | Clc1ccc(COC(Cn2ccnc2)c2ccc(Cl)cc2Cl)c(Cl)c1 (stereo not shown) [Miconazole] | – | – | inhibition at 60 min, 10 µM [1]: 74%; inhibition at 60 min, 100 µM [1]: 86%
16 | O=C(O)CCCCCCCCCCCCCCC(=O)O [Hexadecanedioic Acid] | 130 | – | –
17 | CCCCCCCCCCCCCC(=O)N(C)CC(=O)O [Myristoyl Sarcosine] | – | – | inhibition at 100 µM (LRAT): 11%
18 | COc1cc(NS(C)(=O)=O)ccc1Nc1c2ccccc2nc2ccccc12 [Amsacrine, reference compound] | 6.26 | – | –
19 | CCCCCCCCCCCCCC(=O)O [Myristic Acid] | 17.2 | – | –

Row | Compound | IC50 (TGase I) [µM] | FOLD INCREASE IN RATE OF RETINOL LOSS [2] | also measured
20 | CC(C)=CCC/C(C)=C/CC/C(C)=C/CC/C(C)=C/CO [Geranyl Geraniol] | – | – | inhibition at 100 µM (LRAT): 77%
21 | CC(C)(C(=O)c1cccnc1)c1cccnc1 [Metyrapone (2-Methyl-1,2-di-3-Pyridyl-1-Propane] | – | – | inhibition at 60 min, 100 µM [1]: 47%
22 | CC(=O)c1cc2c(cc1C)C(C)(C)C(C)CC2(C)C (stereo not shown) [Tonalid] | – | – | inhibition at 100 µM (LRAT): 33%
23 | COCAMIDE DEA | – | 1.9 | –
24 | CC(C)CCCCCCCCCCCCCCC(=O)O [Isostearic Acid] | 68.8 | – | –
25 | CC(=O)N1CCN(c2ccc(OCC3COC(Cn4ccnc4)(c4ccc(Cl)cc4Cl)O3)cc2)CC1 (stereo not shown) [Ketoconazole] | 0.185 | – | inhibition at 60 min, 10 µM [1]: 84%; inhibition at 60 min, 100 µM [1]: 84%
26 | Clc1ccccc1C(c1ccccc1)(c1ccccc1)n1ccnc1 [Clotrimazole] | – | – | inhibition at 60 min, 10 µM [1]: 76%
27 | CCCCC/C=C\C/C=C\CCCCCCCC(=O)N(CCO)CCO [Linoleamide-DEA (or Linoleoyl Diethanolamide)] | – | 3.0 | % Inhibition Overall TG (-ROH/RE) (TGase I): 59%
28 | CC1(C)[C@@H](O)CC[C@]2(C)[C@H]3C(=O)C=C4[C@@H]5C[C@@](C)(C(=O)O)CC[C@]5(C)CC[C@@]4(C)[C@]3(C)CC[C@@H]12 [Glycyrretinic Acid] | – | 1.6 | –
29 | C[C@H]1[C@H](C)CC[C@]2(C(=O)O)CC[C@]3(C)C(=CC[C@@H]4[C@@]5(C)CC[C@H](O)C(C)(C)[C@@H]5CC[C@]43C)[C@H]12 [Urosolic Acid] | 1.46 | – | –
30 | CC/C=C\C/C=C\C/C=C\CCCCCCCC(=O)O [Linolenic Acid] | 134 | – | –
31 | CC(C)=CCCC(C)=CC=O [Citral] | – | 3.1 | –
32 | Oc1cccc2cccnc12 [8 OH QUINOLINE] | – | 1.5 | –
33 | CC(C)=CCCC(C)=CCCC(C)=CCO [Farnesol] | 93.5 | – | inhibition at 100 µM (LRAT): 53%
34 | O=c1ccc2ccccc2o1 [COUMARIN] | – | 1.4 | –
35 | CC(/C=C/C=C(\C)C(=O)O)=C\C=C\C=C(C)\C=C\C=C(/C)C(=O)O [Crocetin] | 37.5 | – | inhibition at 100 µM (LRAT): 15%
36 | c1ccc(-c2ccc(C(c3ccccc3)n3ccnc3)cc2)cc1 (stereo not shown) [Bifonazole] | – | – | inhibition at 60 min, 10 µM [1]: 89%; inhibition at 60 min, 100 µM [1]: 100%
37 | CCCCCCCCCCCC(=O)N(C)CC(=O)O [Lauroyl Sarcosine] | – | 2.6 | –
